Measured values: a compilation of properties of binary mixtures (doi:10.1007/s10953-008-9260-8)

Assay: xn = mol fraction of the nth substance listed
Settings: 101 kPa

CCCC[n+]1ccn(C)c1.F[B-](F)(F)F + CCCCCC[n+]1ccn(C)c1.F[B-](F)(F)F
x1 = 1
Settings	viscosity [mPa·s]
298.15 K	106.4
299.15 K	101
301.15 K	91.1
302.15 K	86.7
303.15 K	82.6
304.15 K	78.9
307.15 K	68.5
308.15 K	65.4

CC[n+]1ccn(C)c1.F[B-](F)(F)F + CCCCCC[n+]1ccn(C)c1.F[B-](F)(F)F
x1 = 1
Settings	viscosity [mPa·s]
298.15 K	35.8
301.15 K	32.15
302.15 K	31.06
303.15 K	30.06
304.15 K	29.01
305.15 K	28.13
307.15 K	26.38

CCCC[n+]1ccn(C)c1.F[B-](F)(F)F + CCCC[n+]1ccn(C)c1.COS(=O)(=O)[O-]
x1 = 1
Settings	viscosity [mPa·s]
298.15 K	108.9
299.15 K	103.5
301.15 K	93.2
303.15 K	84.5
304.15 K	80.5
307.15 K	69.9
308.15 K	66.8

CCCCCC[n+]1ccn(C)c1.F[B-](F)(F)F + CCCC[n+]1ccn(C)c1.F[B-](F)(F)F
viscosity [mPa·s]
Settings	298.15 K	299.15 K	301.15 K	302.15 K	303.15 K	304.15 K	305.15 K	307.15 K	308.15 K
x2 = 0	209	197.3	175.8	165.9	157	148.6	140.7	126.7	120
x2 = 0.054	200.2	188.7	168.3	160.4	147.5	142.5	135.7	–	117.4
x2 = 0.103	–	–	164.5	156.8	147.1	–	132	119	–
x2 = 0.2076	172.4	161.3	145	137.3	130.2	122.8	117.3	106.1	101
x2 = 0.2995	167.3	161.3	141.6	134.2	127.2	120.6	114.6	–	98.5
x2 = 0.3602	165.7	156.7	140.4	–	–	119.8	–	102.6	–
x2 = 0.4383	158.7	149	133.4	126.3	119.7	113.7	–	97.4	–
x2 = 0.5047	149.8	144	129.1	122.4	116.1	–	104.7	94.6	90
x2 = 0.555	144	135.9	122.2	–	–	104.4	99.3	90	85.9
x2 = 0.598	142.4	134.7	121.1	114.9	108.6	103.6	–	89.3	85.2
x2 = 0.809	122.3	–	–	99.2	–	89.9	–	77.7	74.5
x2 = 0.8917	–	109.5	–	–	–	85	81	73.6	70.3
